The values that follow come from patent US20240269298A1, “PHOSPHONYL DERIVATIVE, AND COMPOSITION AND PHARMACEUTICAL APPLICATION THEREOF” (XIZANG HAISCO PHARMACEUTICAL CO., LTD., priority 2021, published 2024).

In general, IC50 refers to the concentration needed to halve the response being measured.

Read-outs that look alike come from different tables or passages of the source.

The subject of this test is NCI-H1975 (EGFR-L858R-T790M) cells. Description: Inhibitory activity on proliferation of NCI-H1975 (EGFR-L858R-T790M) cells (CTG, 72 h). It counts as cell-based. The settings on record: Homo sapiens. Here is the method: NCI-H1975 (EGFR-L858R-T790M) and A431 (EGFR-WT) cells were purchased from ATCC and cultured in an incubator at 37° C. with 5% CO2, and the culture mediums were RPMI1640+10% FBS and DMEM+10% FBS, respectively. On the first day, NCI-H1975 (EGFR-L858R-T790M) and A431 (EGFR-WT) cells in the logarithmic phase were collected, and viable cells were counted using an automatic cell analyzer (countstar). The cell suspensions were adjusted with the culture mediums and plated on a 96-well cell culture plate at 1000 cells/well for NCI-H1975 (EGFR-L858R-T790M) cells and at 3000 cells/well for A431 cells. The next day, the culture mediums were aspirated, and 90 μL of fresh culture mediums and 10 μL of the compounds at different concentrations were added to each well, wherein the final concentration of DMSO in each well was 0.1%. The plate was cultured in the incubator at 37° C. with 5% CO2 for 72 hours. After 72 hours of drug treatment, 50 μL of CTG solution (promega, G7572), which was already pre-melted and equilibrated to room temperature, was added to each well, and the mixtures were uniformly mixed for 2 min using a microplate shaker. The plate was placed at room temperature for 10 min, and then […] signal values were measured using a microplate reader (PHERAstar FSX).
Surviving cells % was calculated based on Vsample/Vvehicle control×100%, wherein Vsample was the readout of the drug-treated group, and Vvehicle control was the average value of the vehicle control group. Using the origin 9.2 software and nonlinear regression model, S-shaped dose-survival curves were plotted, and IC50 values were calculated.

The mark [1] stands for this setting: read-out: IC50 (value in brackets).

`COc1cc(N2CCC(CN3CCC4(CCCN(c5ccc6c(c5)C(=O)N(C5CCC(=O)NC5=O)C6=O)C4)CC3)CC2)c(-c2cnn(C)c2)cc1Nc1ncc(Cl)c(Nc2ccc3nccnc3c2P(C)(C)=O)n1` (stereo not shown) [Compound 10, 5-(9-((1-(4-((5-chloro-4-((5-(dimethylphosphoryl)quinoxalin-6-yl)amino)pyrimidin-2-yl)amino)-5-methoxy-2-(1-methyl-1H-pyrazol-4-yl)phenyl)piperidin-4-yl)methyl)-2,9-diazaspiro[5.5]undecan-2-yl)-2-(2,6-dioxopiperidin-3-yl)isoindoline-1,3-dione]: the IC50 runs as follows: (read-out: IC50 (class symbol)) under 100 nM; under setting [1], 13 nM.
Consider `COc1cc(N2CCC(N3CCC(CN4CCN(c5ccc6c(c5)C(=O)N(C5CCC(=O)NC5=O)C6=O)CC4)CC3)CC2)c(-c2cnn(C)c2)cc1Nc1ncc(Cl)c(Nc2ccc3nccnc3c2P(C)(C)=O)n1` (stereo not shown) [Compound 8, 5-(4-((1′-(4-((5-chloro-4-((5-(dimethylphosphoryl)quinoxalin-6-yl)amino)pyrimidin-2-yl)amino)-5-methoxy-2-(1-methyl-1H-pyrazol-4-yl)phenyl)-[1,4′-bipiperidin]-4-yl)methyl)piperazin-1-yl)-2-(2,6-dioxopiperidin-3-yl)isoindoline-1,3-dione], for which the IC50 (read-out: IC50 (class symbol)) was under 100 nM and the IC50 under setting [1] was found to be 34 nM.
For `COc1cc(N2CCC(N3CCC(N4CCC5(CCCN(c6ccc7c(c6)C(=O)N(C6CCC(=O)NC6=O)C7=O)C5)CC4)CC3)CC2)c(-c2cnn(C)c2)cc1Nc1ncc(Cl)c(Nc2ccc3nccnc3c2P(C)(C)=O)n1` (stereo not shown) [Compound 15, 5-(9-(1′-(4-((5-chloro-4-((5-(dimethylphosphoryl)quinoxalin-6-yl)amino)pyrimidin-2-yl)amino)-5-methoxy-2-(1-methyl-1H-pyrazol-4-yl)phenyl)-[1,4′-bipiperidin]-4-yl)-2,9-diazaspiro[5.5]undecan-2-yl)-2-(2,6-dioxopiperidin-3-yl)isoindoline-1,3-dione] the same measures were under 100 nM and 66 nM.
Regarding `COc1cc(N2CCN(C3CN(c4ccc5c(c4)C(=O)N(C4CCC(=O)NC4=O)C5=O)C3)CC2)c(-c2cnn(C)c2)cc1Nc1ncc(Cl)c(Nc2ccccc2P(C)(C)=O)n1` (stereo not shown) [Compound 149, 5-(3-(4-(4-((5-chloro-4-((2-(dimethylphosphoryl)phenyl)amino)pyrimidin-2-yl)amino)-5-methoxy-2-(1-methyl-1H-pyrazol-4-yl)phenyl)piperazin-1-yl)azetidin-1-yl)-2-(2,6-dioxopiperidin-3-yl)isoindoline-1,3-dione], the IC50 (read-out: IC50 (class symbol)) fell in the range of 100 to 500 nM and the IC50 under setting [1] is 116 nM.
Regarding `COc1cc(N2CCN(Cc3cccc(NC4CCC(=O)NC4=O)c3)CC2)c(-c2cnn(C)c2)cc1Nc1ncc(Br)c(Nc2ccc(-c3ccccc3)cc2P(C)(C)=O)n1` (stereo not shown) [Compound 74, 3-((3-((4-(4-((5-bromo-4-((3-(dimethylphosphoryl)-[1,1′-biphenyl]-4-yl)amino)pyrimidin-2-yl)amino)-5-methoxy-2-(1-methyl-1H-pyrazol-4-yl)phenyl)piperazin-1-yl)methyl)phenyl)amino)piperidine-2,6-dione], the IC50 is 100 to 500 nM (read-out: IC50 (class symbol)) and 313 nM under setting [1].
Consider `COc1cc(N2CCC(CN3CCC4(CC3)CCN(c3cc5c(cc3F)C(=O)N(C3CCC(=O)NC3=O)C5=O)CC4)CC2)c(-c2cnn(C)c2)cc1Nc1ncc(Cl)c(Nc2ccc(-c3ccccc3)cc2P(C)(C)=O)n1` (stereo not shown) [Compound 52, 5-(9-((1-(4-((5-chloro-4-((3-(dimethylphosphoryl)-[1,1′-biphenyl]-4-yl)amino)pyrimidin-2-yl)amino)-5-methoxy-2-(1-methyl-1H-pyrazol-4-yl)phenyl)piperidin-4-yl)methyl)-3,9-diazaspiro[5.5]undecan-3-yl)-2-(2,6-dioxopiperidin-3-yl)-6-fluoroisoindoline-1,3-dione], for which the IC50 is, setting by setting: (read-out: IC50 (class symbol)) under 100 nM; under setting [1], 84 nM.
As for `COc1cc(N2CCC(CN3CCN(c4ccc(NC5CCC(=O)NC5=O)cc4F)CC3)CC2)c(-c2cnn(C)c2)cc1Nc1ncc(Cl)c(Nc2ccc(F)cc2P(C)(C)=O)n1` (stereo not shown) [Compound 159, 3-((4-(4-((1-(4-((5-chloro-4-((2-(dimethylphosphoryl)-4-fluorophenyl)amino)pyrimidin-2-yl)amino)-5-methoxy-2-(1-methyl-1H-pyrazol-4-yl)phenyl)piperidin-4-yl)methyl)piperazin-1-yl)-3-fluorophenyl)amino)piperidine-2,6-dione], the IC50 is under 100 nM (read-out: IC50 (class symbol)) and 21 nM under setting [1].
In the case of `COc1cc(N2CCC3(CCN(CC4CCN(c5ccc6c(c5)C(=O)N(C5CCC(=O)NC5=O)C6=O)CC4)CC3)CC2)c(-c2cnn(C)c2)cc1Nc1ncc(Br)c(Nc2ccc3nccnc3c2P(C)(C)=O)n1` (stereo not shown) [Trifluoroacetate of compound 20, 5-(4-((9-(4-((5-bromo-4-((5-(dimethylphosphoryl)quinoxalin-6-yl)amino)pyrimidin-2-yl)amino)-5-methoxy-2-(1-methyl-1H-pyrazol-4-yl)phenyl)-3,9-diazaspiro[5.5]undecan-3-yl)methyl)piperidin-1-yl)-2-(2,6-dioxopiperidin-3-yl)isoindoline-1,3-dione], the IC50 was under 100 nM (read-out: IC50 (class symbol)) and 14 nM under setting [1].
In the case of `COc1cc(N2CCC3(CCN(Cc4cccc(NC5CCC(=O)NC5=O)c4)CC3)CC2)c(-c2cnn(C)c2)cc1Nc1ncc(Cl)c(Nc2ccc(-c3ccccc3)cc2P(C)(C)=O)n1` (stereo not shown) [Compound 130, 3-((3-((9-(4-((5-chloro-4-((3-(dimethylphosphoryl)-[1,1′-biphenyl]-4-yl)amino)pyrimidin-2-yl)amino)-5-methoxy-2-(1-methyl-1H-pyrazol-4-yl)phenyl)-3,9-diazaspiro[5.5]undecan-3-yl)methyl)phenyl)amino)piperidine-2,6-dione], the half-maximal inhibitory concentration (IC50) is, setting by setting: (read-out: IC50 (class symbol)) 100 to 500 nM; under setting [1], 118 nM.
Turning to `COc1cc(N2CCC(N3CCC(CN4CCN(c5ccc6c(c5)C(=O)N(C5CCC(=O)NC5=O)C6=O)CC4)CC3)CC2)c(-c2cnn(C)c2)cc1Nc1ncc(Cl)c(Nc2ccc(-c3ccccc3)cc2P(C)(C)=O)n1` (stereo not shown) [Compound 53, 5-(4-((1′-(4-((5-chloro-4-((3-(dimethylphosphoryl)-[1,1′-biphenyl]-4-yl)amino)pyrimidin-2-yl)amino)-5-methoxy-2-(1-methyl-1H-pyrazol-4-yl)phenyl)-[1,4′-bipiperidin]-4-yl)methyl)piperazin-1-yl)-2-(2,6-dioxopiperidin-3-yl)isoindoline-1,3-dione], the IC50 is, setting by setting: (read-out: IC50 (class symbol)) 100 to 500 nM; under setting [1], 182 nM.
For `COc1cc(N2CCC3(CCN(CC4CCN(c5cc6c(cc5F)C(=O)N(C5CCC(=O)NC5=O)C6=O)CC4)CC3)CC2)c(-c2cnn(C)c2)cc1Nc1ncc(Cl)c(Nc2ccc(-c3ccccc3)cc2P(C)(C)=O)n1` (stereo not shown) [Compound 51, 5-(4-((9-(4-((5-chloro-4-((3-(dimethylphosphoryl)-[1,1′-biphenyl]-4-yl)amino)pyrimidin-2-yl)amino)-5-methoxy-2-(1-methyl-1H-pyrazol-4-yl)phenyl)-3,9-diazaspiro[5.5]undecan-3-yl)methyl)piperidin-1-yl)-2-(2,6-dioxopiperidin-3-yl)-6-fluoroisoindoline-1,3-dione], the IC50 by setting is: (read-out: IC50 (class symbol)) under 100 nM; under setting [1], 72 nM.
As for `COc1cc(N2CCC(CN3CCN(c4ccc(N5CCC(=O)NC5=O)cc4)CC3)CC2)c(-c2cnn(C)c2)cc1Nc1ncc(Cl)c(Nc2ccccc2P(C)(C)=O)n1` [Compound 132, 1-(4-(4-((1-(4-((5-chloro-4-((2-(dimethylphosphoryl)phenyl)amino)pyrimidin-2-yl)amino)-5-methoxy-2-(1-methyl-1H-pyrazol-4-yl)phenyl)piperidin-4-yl)methyl)piperazin-1-yl)phenyl)dihydropyrimidine-2,4(1H,3H)-dione], the IC50 (read-out: IC50 (class symbol)) lay within 100 to 500 nM and the IC50 under setting [1] stood at 296 nM.
`COc1cc(N2CCC(N3CCC4(CCCN(c5cc6c(cc5F)C(=O)N(C5CCC(=O)NC5=O)C6=O)C4)CC3)CC2)c(-c2cnn(C)c2)cc1Nc1ncc(Cl)c(Nc2ccc3nccnc3c2P(C)(C)=O)n1` (stereo not shown) [Compound 28, 5-(9-(1-(4-((5-chloro-4-((5-(dimethylphosphoryl)quinoxalin-6-yl)amino)pyrimidin-2-yl)amino)-5-methoxy-2-(1-methyl-1H-pyrazol-4-yl)phenyl)piperidin-4-yl)-2,9-diazaspiro[5.5]undecan-2-yl)-2-(2,6-dioxopiperidin-3-yl)-6-fluoroisoindoline-1,3-dione]: the half-maximal inhibitory concentration (IC50) runs as follows: (read-out: IC50 (class symbol)) under 100 nM; under setting [1], 33 nM.
Consider `COc1cc(N2CCC(CN3CCN(c4ccc(C5CCC(=O)NC5=O)c(F)c4)CC3)CC2)c(-c2cnn(C)c2)cc1Nc1ncc(Cl)c(Nc2ccccc2P(C)(C)=O)n1` (stereo not shown) [Compound 154, 3-(4-(4-((1-(4-((5-chloro-4-((2-(dimethylphosphoryl)phenyl)amino)pyrimidin-2-yl)amino)-5-methoxy-2-(1-methyl-1H-pyrazol-4-yl)phenyl)piperidin-4-yl)methyl)piperazin-1-yl)-2-fluorophenyl)piperidine-2,6-dione], for which the IC50 reads like this: (read-out: IC50 (class symbol)) under 100 nM; under setting [1], 46 nM.
